Measurements from patent publication US20140200241A1, “PRODRUGS FOR TREATING MICROBIAL INFECTIONS” (Northeastern University, priority 2011, published 2014).
Values after ≈ are worked out from the molar mass of the structure shown. Where two headings read alike, the source gives them in different places.

How the values were obtained:
Francisella tularensis [1] = details: human fibroblast IC50 vs MIC, F. tularensis
IMR90 [2] = details: human
Staphylococcus aureus [3] = test: microbe, parasite or virus in culture; details: for MIC: S. aureus
Yersinia pestis [4] = details: human fibroblast IC50 vs MIC, Y. pestis
Enterococcus faecalis [5] = details: human
Escherichia coli [6] = details: human
Staphylococcus aureus [7] = details: for TI: human
in vitro = details: human
Bacillus anthracis [8] = test: microbe, parasite or virus in culture
Yersinia pestis [9] = test: microbe, parasite or virus in culture; details: for MIC: Y. pestis (FL2, PD30: KIM)
Caco-2 [10] = test: cells; details: Homo sapiens
E. coli ΔargC = test: microbe, parasite or virus in culture; details: Escherichia coli
Pseudomonas aeruginosa [11] = test: microbe, parasite or virus in culture
Acinetobacter baumannii [12] = test: microbe, parasite or virus in culture
Francisella tularensis [13] = test: microbe, parasite or virus in culture; details: for MIC: F. tularensis SchuS4
Acinetobacter baumannii [14] = details: human
Enterococcus faecalis [15] = test: microbe, parasite or virus in culture
IMR90 [16] = test: cells; details: Homo sapiens, IMR-90
Fadu [17] = test: cells; details: Homo sapiens
Escherichia coli [18] = test: microbe, parasite or virus in culture
Pseudomonas aeruginosa [19] = details: human
HepG2 [20] = test: cells; details: Homo sapiens
Bacillus anthracis [21] = details: human fibroblast IC50 vs MIC, B. anthracis
Caco-2 [22] = details: human
Fadu [23] = details: human
HepG2 [24] = details: human
E. coli ΔybgJ = test: microbe, parasite or virus in culture; details: Escherichia coli
E. coli ΔnfsA/ΔnfnB [25] = test: microbe, parasite or virus in culture; details: Escherichia coli
MRSA = MRSA infection in C. elegans; format: in vivo
E. coli ΔnfnB = test: microbe, parasite or virus in culture; details: Escherichia coli
Salmonella typhimurium = test: MIC against Salmonella typhimurium; format: cell-based; details: Salmonella enterica
E. coli ΔnfsA/ΔnfnB [26] = details: double mutant lacking both major nitroreductases vs wild type
E. coli ΔnfsA = test: microbe, parasite or virus in culture; details: Escherichia coli
[27] = tested on: E. coli long-chromosomal-deletion mutants; details: 50 μg/ml of prodrug
S. aureus = S. aureus mouse infection model; cited from earlier work

Compound | TI (Francisella tularensis [1]) | TI (IMR90 [2]) | MIC (Staphylococcus aureus [3]) | TI (Yersinia pestis [4]) | TI (Escherichia coli [6]) | IC50 (in vitro) | MBC (Bacillus anthracis [8]) | MIC (Bacillus anthracis [8]) | MIC (Yersinia pestis [9]) | MIC (Pseudomonas aeruginosa [11]) | MIC (Acinetobacter baumannii [12]) | TI (Acinetobacter baumannii [14]) | MIC (Enterococcus faecalis [15]) | IC50 (IMR90 [16]) | IC50 (Fadu [17]) | MIC (Escherichia coli [18]; read-out: MIC Against E. coli) | TI (Pseudomonas aeruginosa [19]) | IC50 (HepG2 [20]) | TI (Fadu [23]) | TI (HepG2 [24]) | further results
O=C(/C=C(\O)C(F)(F)F)c1ccc(Cl)cc1 [PD30] | 1,282 | 40 | 3.12 µg/mL (≈ 12.5 µM) | 320 | 40 | 250 µg/mL (≈ 998 µM) | > 50 µg/mL | 0.78 µg/mL (≈ 3.11 µM) | 0.78 µg/mL (≈ 3.11 µM) | > 50 µg/mL | 12.5 µg/mL (≈ 49.9 µM) | 20 | 6.25 µg/mL (≈ 24.9 µM) | 250 µg/mL (≈ 998 µM) | 62.5 µg/mL (≈ 249 µM) | 6.25 µg/mL (≈ 24.9 µM) | >2 | 62.5 µg/mL (≈ 249 µM) | 10 | 10 | TI (Enterococcus faecalis [5]): 40; MIC (Staphylococcus aureus [7]; S. aureus): 3.12 µg/mL (≈ 12.4 µM); TI (Staphylococcus aureus [7]): 80; MBC (Yersinia pestis [9]): 3.12 to 6.25 µg/mL (≈ 12.4 to 24.9 µM); IC50 (Caco-2 [10]): 200 µg/mL (≈ 798 µM); MIC (E. coli ΔargC): 50 µg/mL (≈ 200 µM); MBC (Francisella tularensis [13]): 0.78 to 1.5 µg/mL (≈ 3.11 to 5.99 µM); MIC (Francisella tularensis [13]): 0.195 µg/mL (≈ 0.778 µM); TI (Bacillus anthracis [21]): 320; Hemolytic activity (Sheep's red blood cells): no hemolytic activity; TI (Caco-2 [22]): 32; MIC (E. coli ΔybgJ): 100 µg/mL (≈ 399 µM)
O=[N+]([O-])c1ccc(/C=[N+](\[O-])CCO)o1 [FL1] |  | 320 | 1.56 µg/mL (≈ 7.79 µM) | ≧320 | 320 | 250 µg/mL (≈ 1250 µM) | 0.78 µg/mL (≈ 3.9 µM) | 0.35 µg/mL (≈ 1.75 µM) | ≤ 0.78 µg/mL | 25 µg/mL (≈ 125 µM) | 12.5 µg/mL (≈ 62.5 µM) | 20 | 3.12 µg/mL (≈ 15.6 µM) | 250 µg/mL (≈ 1250 µM) | 62.5 µg/mL (≈ 312 µM) | 0.78 µg/mL (≈ 3.9 µM) | 10 | 31.2 µg/mL (≈ 156 µM) | 80 | 40 | MIC (E. coli ΔnfsA/ΔnfnB [25]): 12.5 µg/mL (≈ 62.5 µM); MBC (Staphylococcus aureus [3]): 3.25 µg/mL (≈ 16.2 µM); TI (Enterococcus faecalis [5]): 80; TI (Staphylococcus aureus [7]): 160; IC50 (Caco-2 [10]): 200 µg/mL (≈ 999 µM); in vivo efficacy (MRSA): in vivo efficacy against a MRSA infection in C. elegans; MIC (E. coli ΔnfnB): 0.16 µg/mL (≈ 0.799 µM); MBC (Escherichia coli [18]): 0.78 µg/mL (≈ 3.9 µM); MIC (Escherichia coli [18]): 0.78 µg/mL (≈ 3.9 µM); Hemolytic activity (Sheep's red blood cells): no hemolytic activity; TI (Caco-2 [22]): 256; MIC (Salmonella typhimurium): 5 µg/mL (≈ 25 µM); decrease of activity (E. coli ΔnfsA/ΔnfnB [26]): 16 fold; MIC (E. coli ΔnfsA): 2.5 µg/mL (≈ 12.5 µM)
Oc1c(Br)cc(Br)c2cccnc12 [FL2] | 1,031 | 67 | ≤ 1.5 µg/mL | 67 | 67 | 100 µg/mL (≈ 330 µM) | > 50 µg/mL | 1.5 µg/mL (≈ 4.95 µM) | 1.5 µg/mL (≈ 4.95 µM) | > 50 µg/mL | 6.25 µg/mL (≈ 20.6 µM) | 16 | 3.25 µg/mL (≈ 10.7 µM) | 100 µg/mL (≈ 330 µM) | 31.2 µg/mL (≈ 103 µM) | 1.5 µg/mL (≈ 4.95 µM) | >2 | 62.5 µg/mL (≈ 206 µM) | 21 | 42 | MBC (Yersinia pestis [9]): 12.5 to 25 µg/mL (≈ 41.3 to 82.5 µM); MBC (Francisella tularensis [13]): 1.5 to 3.12 µg/mL (≈ 4.95 to 10.3 µM); MIC (Francisella tularensis [13]): 0.097 µg/mL (≈ 0.32 µM); MBC (Escherichia coli [18]): 3 µg/mL (≈ 9.9 µM); TI (Bacillus anthracis [21]): 67; Resistance (growth in presence of prodrug) [27]: observed in a large number of deletions
COc1ccccc1NC(=O)Nc1ccc2ccccc2c1 [INF271] |  |  |  |  |  |  |  |  |  |  |  |  |  |  |  |  |  |  |  |  | efficacy (S. aureus): shows efficacy in a S. aureus mouse infection model
